From US9295732B2, “Conjugated TLR7 and/or TLR8 and TLR2 polycationic agonists” (CAYLA, priority 2013, dated 2016)

What was measured:
human TLR2 = target: T1, human TLR2 (Homo sapiens, UniProt O60603); experiment: HEK-Blue hTLR2 NF-κB/AP-1 SEAP reporter assay; format: cell-based; conditions: HEK-Blue hTLR2 cells, 10 μg/mL to 10 pg/ml, 24 hours, OD at 655 nm, FIG. 3
T1 construct: host or cells: HEK293 (HEK-Blue™ hTLR2)
Description: (§1) Cell-based assays were carried out using TLR7 and TLR2 reporter cell lines (InvivoGen). The reporter cell lines are engineered HEK293 cells, a human embryonic kidney cell line (ATCC, CRL-1573) that stably express either murine TLR7 (HEK-Blue™ mTLR7) or human TLR7 (HEK-Blue™ hTLR7) or human TLR2 (HEK-Blue™ hTLR2) with an NF-κB-inducible secreted embryonic alkaline phosphatase (SEAP) as the reporter gene. The SEAP reporter gene is under the control of the NF-κB and AP-1-inducible promoter, which, upon treatment with a corresponding TLR ligand and activation of NF-κB and AP-1, induces the production of SEAP. Detection of SEAP is measured following culturing cells in HEK-Blue™ Detection media (InvivoGen). HEK-Blue™ Detection contains a SEAP substrate that when hydrolysed by SEAP produces a colorimetric change allowing for detection of SEAP as the protein is secreted. […] These assays were carried out using RAW-Blue™ Cells (InvivoGen), derived from RAW 264.7 mouse leukemic monocyte macrophage cell line (ATCC, CRL 2278) stably overexpressing a NF-B/AP-1 inducible SEAP reporter constructs.
(§2) To perform the assay, cells were seeded on 96 well microliter plates at 50,000 or 100,000 cells per well for HEK-Blue™ Cells and RAW-Blue™ Cells respectively, and cultured at 37° C. in the presence of the conjugated compounds The TLR7-TLR2 polyamine molecules were prepared as follows: First, stock solutions of the conjugated compounds of the invention were prepared in ethanol or water to a concentration of 10 mg/ml.
(§3) The working dilutions of the conjugated TLR7-TLR2 polyamine agonists made up in water or PBS were directly added to the reporter cell lines at a final concentration ranging from 10 μg/mL to 10 pg/ml and incubated at 37° C. for 24 hours. After 24 hours of incubation, the effect on reporter gene activity was determined by reading the OD at 655 nm using iMark™ Microplate Reader (BIO-RAD).

murine TLR7 = target: T2, murine TLR7 (Mus musculus, UniProt P58681); experiment: HEK-Blue mTLR7 NF-κB/AP-1 SEAP reporter assay; format: cell-based; conditions: HEK-Blue mTLR7 cells, 10 μg/mL to 10 pg/ml, 24 hours, OD at 655 nm, FIG. 2
T2 construct: host or cells: HEK293 (HEK-Blue™ mTLR7)
T2 sequence (P58681 27-1050): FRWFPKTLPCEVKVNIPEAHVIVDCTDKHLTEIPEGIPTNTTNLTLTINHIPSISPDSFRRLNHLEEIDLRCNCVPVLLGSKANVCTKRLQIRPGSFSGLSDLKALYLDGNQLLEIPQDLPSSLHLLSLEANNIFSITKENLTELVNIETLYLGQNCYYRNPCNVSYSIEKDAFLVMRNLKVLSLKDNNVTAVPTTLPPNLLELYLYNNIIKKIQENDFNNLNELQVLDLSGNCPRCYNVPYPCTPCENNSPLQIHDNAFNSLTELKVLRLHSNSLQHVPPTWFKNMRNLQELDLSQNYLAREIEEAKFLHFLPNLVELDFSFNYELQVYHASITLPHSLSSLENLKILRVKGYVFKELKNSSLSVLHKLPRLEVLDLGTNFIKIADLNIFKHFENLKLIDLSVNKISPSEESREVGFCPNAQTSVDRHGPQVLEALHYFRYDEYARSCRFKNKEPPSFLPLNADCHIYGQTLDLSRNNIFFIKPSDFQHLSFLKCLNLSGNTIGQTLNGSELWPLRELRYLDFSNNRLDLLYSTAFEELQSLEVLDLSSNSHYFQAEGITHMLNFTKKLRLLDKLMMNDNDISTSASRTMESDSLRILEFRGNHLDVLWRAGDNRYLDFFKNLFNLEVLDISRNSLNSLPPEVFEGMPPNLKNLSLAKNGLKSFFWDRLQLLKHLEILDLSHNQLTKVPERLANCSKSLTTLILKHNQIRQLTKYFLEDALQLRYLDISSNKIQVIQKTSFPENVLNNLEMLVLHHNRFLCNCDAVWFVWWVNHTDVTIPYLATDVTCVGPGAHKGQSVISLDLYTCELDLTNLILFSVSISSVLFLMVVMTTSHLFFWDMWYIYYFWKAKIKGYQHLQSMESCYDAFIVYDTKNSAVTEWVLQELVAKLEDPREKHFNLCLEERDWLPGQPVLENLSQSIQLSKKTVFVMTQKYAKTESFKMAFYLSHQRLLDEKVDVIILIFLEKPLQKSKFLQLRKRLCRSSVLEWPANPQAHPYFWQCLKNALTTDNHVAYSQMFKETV
Description: as §1, §2, §3

human TLR7 = target: T3, human TLR7 (Homo sapiens, UniProt Q9NYK1); experiment: HEK-Blue hTLR7 NF-κB/AP-1 SEAP reporter assay; format: cell-based; conditions: HEK-Blue hTLR7 cells, 10 μg/mL to 10 pg/ml, 24 hours, OD at 655 nm, FIG. 1
T3 construct: host or cells: HEK293 (HEK-Blue™ hTLR7)
T3 sequence (Q9NYK1 27-1049): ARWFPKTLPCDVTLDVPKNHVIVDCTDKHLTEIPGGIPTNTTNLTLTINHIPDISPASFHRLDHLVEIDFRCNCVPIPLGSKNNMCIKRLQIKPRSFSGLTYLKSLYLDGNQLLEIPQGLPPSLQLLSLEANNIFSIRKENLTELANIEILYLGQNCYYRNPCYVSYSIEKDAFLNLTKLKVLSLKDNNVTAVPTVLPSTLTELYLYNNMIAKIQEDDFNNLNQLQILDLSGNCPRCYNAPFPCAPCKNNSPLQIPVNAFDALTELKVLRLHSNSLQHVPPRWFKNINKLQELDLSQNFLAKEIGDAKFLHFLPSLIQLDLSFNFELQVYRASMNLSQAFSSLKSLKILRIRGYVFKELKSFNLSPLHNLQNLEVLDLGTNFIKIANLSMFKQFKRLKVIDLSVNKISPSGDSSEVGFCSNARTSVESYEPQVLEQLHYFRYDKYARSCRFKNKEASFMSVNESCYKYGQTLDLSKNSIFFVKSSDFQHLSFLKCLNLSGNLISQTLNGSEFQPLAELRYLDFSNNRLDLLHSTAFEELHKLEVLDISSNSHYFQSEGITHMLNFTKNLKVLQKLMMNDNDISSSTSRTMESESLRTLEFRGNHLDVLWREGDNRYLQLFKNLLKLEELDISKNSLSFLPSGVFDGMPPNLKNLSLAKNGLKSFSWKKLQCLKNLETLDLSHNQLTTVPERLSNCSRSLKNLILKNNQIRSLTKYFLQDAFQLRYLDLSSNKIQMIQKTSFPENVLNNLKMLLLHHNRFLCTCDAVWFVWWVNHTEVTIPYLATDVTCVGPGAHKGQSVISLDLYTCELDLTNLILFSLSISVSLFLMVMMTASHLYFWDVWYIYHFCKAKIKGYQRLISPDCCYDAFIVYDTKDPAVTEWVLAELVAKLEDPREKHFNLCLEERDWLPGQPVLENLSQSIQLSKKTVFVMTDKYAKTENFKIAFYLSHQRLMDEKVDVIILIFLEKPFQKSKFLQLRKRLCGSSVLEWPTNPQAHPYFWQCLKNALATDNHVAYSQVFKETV
Description: as §1, §2, §3

plasmid DNA (pDNA) = experiment: Gel shift (mobility shift) assay of pDNA complexation; format: binding; conditions: pDNA:molecule ratio 3:24 (w:w), 0.8% agarose gel, compared to pDNA alone
Description: Then, 10 μl of pDNA:TLR7-TLR2 polyamine molecule complexes and 2 μl of charge buffer were mixed and loaded into wells of a 0.8% agarose gel. Samples were migrated through the gel in TAE buffer under 135 voltage for 21 mins and the migration of the pDNA was visualized following ethidium bromide staining under UV light. The ability of TLR7-TLR2 polyamine molecules to complex/associate with the pDNA was identified by partial or complete retardation of the pDNA migration toward the anode in the gel compared to pDNA alone. […] Ethidium bromide intercalation of pDNA in complex with molecules allowed visualization of complexed pDNA as a smear in the wells of the gel.

[1] = tested on: endogenous TLR2 and TLR7 in RAW-Blue™ Cells; experiment: RAW-Blue Cells NF-κB/AP-1 SEAP reporter assay; format: cell-based, mouse; conditions: 24 hours, OD at 655 nm, FIG. 4
Description: as §1, §2, §3

T1 sequence (O60603 21-784): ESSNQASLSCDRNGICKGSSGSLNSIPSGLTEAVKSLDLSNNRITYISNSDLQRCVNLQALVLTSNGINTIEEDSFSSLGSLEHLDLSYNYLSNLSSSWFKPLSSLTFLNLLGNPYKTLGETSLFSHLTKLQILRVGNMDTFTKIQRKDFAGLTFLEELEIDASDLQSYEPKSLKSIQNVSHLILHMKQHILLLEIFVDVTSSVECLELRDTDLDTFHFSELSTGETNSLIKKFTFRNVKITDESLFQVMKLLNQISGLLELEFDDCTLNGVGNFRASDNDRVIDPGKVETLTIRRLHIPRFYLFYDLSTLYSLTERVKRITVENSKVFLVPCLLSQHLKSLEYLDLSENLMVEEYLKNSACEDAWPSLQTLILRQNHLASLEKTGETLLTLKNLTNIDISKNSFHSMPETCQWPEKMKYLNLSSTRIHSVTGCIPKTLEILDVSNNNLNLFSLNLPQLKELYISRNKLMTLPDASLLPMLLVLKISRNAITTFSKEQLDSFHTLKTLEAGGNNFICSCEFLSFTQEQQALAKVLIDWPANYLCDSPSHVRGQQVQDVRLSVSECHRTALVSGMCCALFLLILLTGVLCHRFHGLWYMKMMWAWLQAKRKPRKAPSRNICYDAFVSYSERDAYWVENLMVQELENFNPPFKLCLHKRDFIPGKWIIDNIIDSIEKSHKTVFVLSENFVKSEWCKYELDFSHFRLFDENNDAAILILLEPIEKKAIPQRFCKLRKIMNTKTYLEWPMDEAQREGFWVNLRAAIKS

SMILES	ability to activate hTLR2 (human TLR2)	ability to activate mTLR7 (murine TLR7)	ability to activate hTLR7 (human TLR7)	ability to complex pDNA (retardation of pDNA migration in agarose gel) (plasmid DNA (pDNA))	ability to activate endogenous TLR2 and TLR7 in RAW-Blue Cells [1]
CCCCCCCCCCCCCCCC(=O)OCC(CSC[C@H](N)C(=O)N[C@@H](CO)C(=O)N[C@@H](CCCCN)C(=O)N[C@@H](CCCCN)C(=O)N[C@@H](CCCCNC(=O)c1ccc(Cn2c(O)nc3c(N)nc(NCCCC)nc32)cc1)C(=O)N[C@@H](CCCCN)C(=O)O)OC(=O)CCCCCCCCCCCCCCC (stereo partly drawn) [CL530, (2S,5S,8S,11S,14S,17R)-17-amino-5-(4-(4-((6-amino-2-(butylamino)-8-hydroxy-9H-purin-9-yl)methyl)benzamido)butyl)-2,8,11-tris(4-aminobutyl)-14-(hydroxymethyl)-4,7,10,13,16,24-hexaoxo-21-(palmitoyloxy)-23-oxa-19-thia-3,6,9,12,15-pentaaza nonatriacontan-1-oic acid]	activate hTLR2	activate mTLR7	activate hTLR7	inability to migrate through an agarose gel	activate endogenous TLR2 and TLR7
CCCCCCCCCCCCCCCC(=O)OCC(CSC[C@H](N)C(=O)N[C@@H](CO)C(=O)N[C@@H](CCCCN)C(=O)N[C@@H](CCCCNC(=O)c1ccc(Cn2c(O)nc3c(N)nc(NCCCC)nc32)cc1)C(=O)N[C@@H](CCCCN)C(=O)N[C@@H](CCCCN)C(=O)O)OC(=O)CCCCCCCCCCCCCCC (stereo partly drawn) [CL531, (2S,5S,8S,11S,14S,17R)-17-amino-8-(4-(4-((6-amino-2-(butylamino)-8-hydroxy-9H-purin-9-yl)methyl)benzamido)butyl)-2,5,11-tris(4-aminobutyl)-14-(hydroxymethyl)-4,7,10,13,16,24-hexaoxo-21-(palmitoyloxy)-23-oxa-19-thia-3,6,9,12,15-pentaaza nonatriacontan-1-oic acid]	activate hTLR2	activate mTLR7	activate hTLR7	inability to migrate through an agarose gel	activate endogenous TLR2 and TLR7
CCCCCCCCCCCCCCCC(=O)OCC(CSC[C@H](N)C(=O)N[C@@H](CO)C(=O)N[C@@H](CCCCNC(=O)c1ccc(Cn2c(O)nc3c(N)nc(NCCCC)nc32)cc1)C(=O)N[C@@H](CCCCN)C(=O)N[C@@H](CCCCN)C(=O)N[C@@H](CCCCN)C(=O)O)OC(=O)CCCCCCCCCCCCCCC (stereo partly drawn) [CL533, (2S,5S,8S,11S,14S,17R)-17-amino-11-(4-(4-((6-amino-2-(butylamino)-8-hydroxy-9H-purin-9-yl)methyl)benzamido)butyl)-2,5,8-tris(4-aminobutyl)-14-(hydroxylmethyl)-4,7,10,13,16,24-hexaoxo-21-(palmitoyloxy)-23-oxa-19-thia-3,6,9,12,15-pentaazanonatria contan-1-oic acid]	activate hTLR2	activate mTLR7	activate hTLR7	inability to migrate through an agarose gel	activate endogenous TLR2 and TLR7
CCCCCCCCCCCCCCCC(=O)N[C@@H](CSCC(COC(=O)CCCCCCCCCCCCCCC)OC(=O)CCCCCCCCCCCCCCC)C(=O)N[C@@H](CO)C(=O)N[C@@H](CCCCN)C(=O)N[C@@H](CCCCN)C(=O)N[C@@H](CCCCNC(=O)c1ccc(Cn2c(O)nc3c(N)nc(NCCCC)nc32)cc1)C(=O)N[C@@H](CCCCN)C(=O)O (stereo partly drawn) [CL535, (2S,5S,8S,11S,14S,17R)-5-(4-(4-((6-amino-2-(butylamino)-8-hydroxy-9H-purin-9-yl)methyl)benzamido)butyl)-2,8,11-tris(4-aminobutyl)-14-(hydroxymethyl)-4,7,10,13,16,24-hexaoxo-17-palmitamido-21-(palmitoyloxy)-23-oxa-19-thia-3,6,9,12,15-pentaazanonatriacontan-1-oic acid]	activate hTLR2	activate mTLR7	activate hTLR7	inability to migrate through an agarose gel	activate endogenous TLR2 and TLR7
